# Source: US20250352588A1, “EFFECT OF A PROBIOTIC COMPOSITION ON VAGINAL LACTOBACILLUS SPECIES” (INTERNATIONAL N&H DENMARK APS, priority 2021, published 2025)
# Legend:
# [1] = test system: Lactobacillus crispatus 13331; assay: Growth experiments with probiotic supernatant and biogenic amines (OD600, 44 h); assay type: cell-based; settings: highest physiological concentration (cadaverine 4990 μM, putrescine 3179 μM); putrescine effect from 0.5 h to end of experiment
# Protocol: The growth experiment was performed as described above but with some modifications. The Lactobacillus crispatus strain was cultured in SVF media (control), and in the SVF media containing one of the biogenic amines, and in the SVF media containing one of the biogenic amines and probiotic supernatant. The effect of all five biogenic amines was investigated independently on the pure culture of Lactobacillus crispatus 13331. Each test condition was investigated in triplicates in the honey-comb plate. […] The growth study was performed in SVF pH 4.5 using Bioscreen© C system measuring the optical density at 600 nm every 30 min for 44 h at 37° C. […] Growth experiments were performed in three independent biological replicates.
# L. crispatus strains = settings: Borgogna et al., 2021; cited from earlier work
SMILES,growth in the presence of biogenic amine alone vs strain alone (control) [1],effect on growth of L. crispatus strains (L. crispatus strains)
NCCCCCN [cadaverine],no statistically significant difference in growth,
NCCCCN [putrescine],significant reduction in the growth,negatively affect the growth
